Reference: PubChem BioAssay (NCI)
“And” between values parts separate entries of the source, which are not always exact repeats. Equal values may be shown once.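 Interpolation was linear, between the two tested concentrations surrounding the appropriate level; five concentrations were tested over 48 hours in 96-well plates. GI50 is the concentration that inhibits growth by half. At the TGI there is no net growth.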

Legend:
Test in all cases: NCI tumour cell line growth inhibition, 48 h
BT-549 breast = tested on: BT-549 breast
COLO 205 colon = tested on: COLO 205 colon
DU-145 prostate = tested on: DU-145 prostate
HCC-2998 colon = tested on: HCC-2998 colon
KM12 colon = tested on: KM12 colon
NCI-H226 lung = tested on: NCI-H226 lung
SNB-19 CNS = tested on: SNB-19 CNS
SR leukemia = tested on: SR leukemia
UACC-257 melanoma = tested on: UACC-257 melanoma
UACC-62 melanoma = tested on: UACC-62 melanoma

SMILES | GI50 (BT-549 breast) | TGI (BT-549 breast) | GI50 (COLO 205 colon) [nM] | TGI (COLO 205 colon) | GI50 (DU-145 prostate) [nM] | TGI (DU-145 prostate) | GI50 (HCC-2998 colon) | TGI (HCC-2998 colon) | GI50 (KM12 colon) | TGI (KM12 colon) [nM] | GI50 (NCI-H226 lung) [nM] | GI50 (SNB-19 CNS) [nM] | TGI (SNB-19 CNS) | GI50 (SR leukemia) [nM] | TGI (SR leukemia) | GI50 (UACC-257 melanoma) | TGI (UACC-257 melanoma) | GI50 (UACC-62 melanoma) | TGI (UACC-62 melanoma) | TGI (NCI-H226 lung) [nM]
NNc1c(C(N)=O)c2c(N)ncnc2n1C1OC(CO)C(O)C1O (configuration not stated) | 35.5 nM and 40.7 nM | 624 nM and 672 nM | < 10 | 55.2 nM and 34.2 nM | < 15.1 | 183 nM and 178 nM | < 17.6 nM and 16.5 nM | 46.2 nM and 69.1 nM | 45.3 nM and 47.5 nM | 12400 | 251 | 187 | 8540 nM and 18200 nM | 25.2 | 19.4 nM and 63.9 nM | 40.4 nM and 132 nM | 254 nM and 1370 nM | 26.9 nM and 40.9 nM | 124 nM and 168 nM | –
C=C1OC2OC(C)C(NC(=O)OCC(Cl)(Cl)Cl)C(OC(C)=O)C2O1 (configuration not stated) | – | > 100000 nM | – | > 100000 nM | – | > 100000 nM | – | > 100000 nM | – | > 100000 | – | – | > 100000 nM | – | > 100000 nM | – | > 100000 nM | – | > 100000 nM | > 100000
Cc1cc(N2CCC(N3CCCC3)CC2)nc(/N=C(\N)Nc2ccc(Cl)c(Cl)c2)n1 | 2440 nM | 6370 nM | 1700 | 3260 nM | 1750 | 3440 nM | 1540 nM | 3170 nM | 1720 nM | 3640 | 1790 | 2140 | 5630 nM | 255 | > 100000 nM | 1920 nM | 3540 nM | 1900 nM | 3600 nM | 3690
CC[C@H](C)[C@H](NC(=O)[C@H]1CCCCN1C)C(=O)N(C)[C@H](CCc1nc(C(=O)N[C@@H](Cc2ccccc2)C[C@H](C)C(=O)O)cs1)C(C)C | 126 nM | 6940 nM | 144 | 1830 nM | 389 | > 25000 nM | 632 nM | > 25000 nM | 115 nM | > 25000 | 8830 | 197 | > 25000 nM | 16.6 | > 25000 nM | > 25000 nM | > 25000 nM | 86.1 nM | > 25000 nM | > 25000
COc1ccc(-c2nsc3c2NC(=O)CC3c2ccsc2)cc1 (configuration not stated) | 1280 nM | 40800 nM | 110 | 846 nM | 422 | 2870 nM | 528 nM | > 22700 nM | 71.5 nM | > 34000 | 2150 | 1050 | > 100000 nM | 38.4 | > 100000 nM | 3080 nM | 38400 nM | 295 nM | 65000 nM | 16900
CCn1c(-c2nonc2N)nc2ccccc21 | > 25000 nM | > 25000 nM | > 25000 | > 25000 nM | > 25000 | > 25000 nM | > 25000 nM | > 25000 nM | > 25000 nM | > 25000 | > 14900 | > 25000 | > 25000 nM | > 25000 | > 25000 nM | > 25000 nM | > 25000 nM | > 25000 nM | > 25000 nM | > 25000
COc1cc(C2CC(c3ccccc3)=NN2C=O)ccc1Oc1ccnc2cc(Cl)ccc12 (configuration not stated) | 2240 nM | 14100 nM | > 100000 | > 100000 nM | > 100000 | > 100000 nM | > 100000 nM | > 100000 nM | > 100000 nM | > 100000 | 5240 | 26600 | > 100000 nM | > 100000 | > 100000 nM | – | – | 6760 nM | > 100000 nM | > 100000
